From patent US20050039231A1, “Method for selecting transformed plant cells using ethionine and cystathionine gamma synthase as the selection agent and marker gene” (Rutgers, The State University, priority 1999, published 2005)

Legend:
[1] = system: transgenic potato plants (CGS+); test: Resistance to ethionine in CGS+ transgenic potato plants (growth on maintenance medium with ethionine); format: in vivo, Russet Burbank potato
Protocol: (§1) Inaba, et al. used 100 μM ethionine, the toxic analogue of methionine to select Arabidopsis thaliana mutants that overaccumulated methionine. We tested the effects of ethionine on the growth of transgenic potato plants by incorporating ethionine into the maintenance medium. Several concentrations of ethionine, 10, 25, 50, 100, 200, 300 μM were tested initially using wild-type potato plants.

wild-type potato plants = test: Effect of ethionine in the maintenance medium on growth of wild-type potato plants; format: in vivo, Russet Burbank potato
Protocol: as §1

[2] = ethionine 10 μM in maintenance medium

CCSCC[C@H](N)C(=O)O [ethionine]
growth of transgenic potato plants [1, 2]: continued to grow
root initiation of transgenic potato plants [1, 2]: all transgenic plants initiated roots in three days
growth of transgenic potato plants ([1]; ethionine 25 and 50 μM in maintenance medium): only CGS4 and CGS8 had limited growth of roots
growth of wild-type potato plants (wild-type potato plants; [2]): growth of wild-type plants were inhibited
growth of wild-type potato plants (wild-type potato plants; ethionine 50 μM and higher (10, 25, 50, 100, 200, 300 μM tested) in maintenance medium): total inhibition of growth
